Test results published in patent publication US8178694B2, “Heterocyclylaminoalkyl substituted benzimidazoles” (Tibotec Pharmaceuticals Ltd., priority 2005, dated 2012).

Test system: not given
Test: not given
Details: not given

Structure (SMILES) | melting point [°C]
OCCc1ccncc1NCc1ccc2nc(NCCCN3CCOCC3)n(Cc3ncccc3O)c2c1 [h-3] | 142
Cc1ccc(O)c(Cn2c(NCCCN3CCOCC3)nc3ccc(CNc4cnccc4CCO)cc32)n1 [g-3] | 207

Test system: Respiratory Syncytial Virus
Test: In vitro screening for activity against Respiratory Syncytial Virus (tetrazolium-based colorimetric assay, HeLa cells)
Format: cell-based
Details: human respiratory syncytial virus, 168 h; protection against cytopathology caused by RSV in HeLa cells, MTT readout seven days after infection
Source text: The percent protection against cytopathology caused by viruses (antiviral activity or EC50) achieved by tested compounds and their cytotoxicity (CC50) are both calculated from dose-response curves. The selectivity of the antiviral effect is represented by the selectivity index (SI), calculated by dividing the CC50 (cytotoxic dose for 50% of the cells) by the EC50 (antiviral activity for 50% of the cells).
Automated tetrazolium-based colorimetric assays were used for determination of EC50 and CC50 of test compounds. Flat-bottom, 96-well plastic microtiter trays were filled with 180 μl of Eagle's Basal Medium, supplemented with 5% FCS (0% for FLU) and 20 mM Hepes buffer. Subsequently, stock solutions (7.8× final test concentration) of compounds were added in 45 μl volumes to a series of triplicate wells so as to allow simultaneous evaluation of their effects on virus- and mock-infected cells. Five five-fold dilutions were made directly in the microtiter trays using a robot system. Untreated virus controls, and HeLa cell controls were included in each test. Approximately 100 TCID50 of Respiratory Syncytial Virus was added to two of the three rows in a volume of 50 μl. The same volume of medium was added to the third row to measure the cytotoxicity of the compounds at the same concentrations as those used to measure the antiviral activity. After two hours of incubation, a suspension (4×10^5 cells/ml) of HeLa cells was added to all wells in a volume of 50 μl. The cultures were incubated at 37° C. in a 5% CO2 atmosphere. Seven days after infection the cytotoxicity and the antiviral activity was examined spectrophotometrically. To each well of the microtiter tray, 25 μl of a solution of MTT (3-(4,5-dimethylthiazol-2-yl)-2,5-diphenyltetrazolium bromide) was added. The trays were further incubated at 37° C. for 2 hours, after which the medium was removed from each cup. Solubilization of the formazan crystals was achieved by adding 100 μl 2-propanol. Complete dissolution of the formazan crystals were obtained after the trays have been placed on a plate shaker for 10 min. Finally, the absorbances were read in an eight-channel computer-controlled photometer (Multiskan MCC, Flow Laboratories) at two wavelengths (540 and 690 nm). The absorbance measured at 690 nm was automatically subtracted from the absorbance at 540 nm, so as to eliminate the effects of non-specific absorption.

Structure (SMILES) | EC50 [nM]
OCCc1ccncc1NCc1ccc2nc(NCCCN3CCOCC3)n(Cc3ncccc3O)c2c1 [h-3] | 447
OCCc1ncccc1NCc1ccc2nc(NCCCN3CCOCC3)n(Cc3ncccc3O)c2c1 [e-1] | 200
Cc1ccc(O)c(Cn2c(NCCCN3CCOCC3)nc3ccc(CNc4cccnc4CCO)cc32)n1 [c-3] | 31.6
Cc1ccc(O)c(Cn2c(NCCCN3CCOCC3)nc3ccc(CNc4cnccc4CCO)cc32)n1 [g-3] | 50.1
